{
  "source": "paper PMC11040352",
  "about": "“CD38‐Specific Gallium‐68 Labeled Peptide Radiotracer Enables Pharmacodynamic Monitoring in Multiple Myeloma with PET” (Advanced Science, 2024)",
  "test": "Ex vivo biodistribution in mice with MM1S tumor xenografts",
  "conditions": "both sexes, NSG, mouse; for tissue uptake at 5 min: 5 min p.i.; for tissue uptake at 0.5 h: 30 min p.i.; for tissue uptake at 1 h: 60 min p.i.; for tissue uptake at 1.5 h: 90 min p.i.; for tissue uptake at 2 h: 120 min p.i.",
  "experimental": "Animal studies were performed under Johns Hopkins University Animal Care and Use Committee (ACUC‐approved protocol (Principal investigator: Sridhar Nimmagadda, Ph.D. and Protocol number M021M175). Male and female NSG mice (5‐6 weeks old) were used to establish xenografts by administering 3 million cells (50% Corning Matrigel) subcutaneously to form various tumor models within 3–4 weeks. Imaging or biodistribution studies (n = 3–5) were conducted on mice with tumor volumes of 100–200 mm^3. Disseminated tumor models were developed by injecting 4–5 million cells in saline intravenously for MOLP8 and MM1S‐Luc models (n = 4–5). Luciferase expressing MM1S cell line (MM1S‐Luc) was used to monitor cancer cell dissemination in the body. Tumor establishment was confirmed by injecting D‐Luciferin intraperitoneally (150 mg kg^−1) and imaged mice after 10 min in IVIS bioluminescence imaging system. Bone marrow tumors were ready for imaging after 25–30 d of implantation.\nMice with 100–200 mm^3 tumor volume were used for ex vivo biodistribution studies. For radiotracer pharmacokinetics studies, mice with MOLP8 tumor xenografts received ≈80 µCi (2.96 MBq) [^68Ga]Ga‐AJ206 and were sacrificed at pre‐determined time points (5, 30, 60 and 120 min). Similarly, for dosimetry study, mice with MM1S tumor xenografts received ≈80 µCi (2.96 MBq) of [^68Ga]Ga‐AJ206 and were sacrificed at pre‐determined time points (5, 30, 60, 90 and 120 min). All other mice were injected with ≈50µCi (1.85 MBq) [^68Ga]Ga‐AJ206 and were sacrificed at 60 min. The selected tissues were collected, weighed, counted, and their %ID g^−1 values calculated for biodistribution analysis. The tissues included blood, muscle, tumor, thymus, heart, lung, liver, pancreas, stomach, small intestine, large intestine, spleen, adrenals, kidney, bladder, femur, and brain.",
  "key": {"[1]": {"conditions": "adrenals, 80 µCi, MM1S xenograft mice, read-out: uptake in adrenals"}, "[2]": {"conditions": "bladder, 80 µCi, MM1S xenograft mice, read-out: uptake in bladder"}, "[3]": {"conditions": "blood, 80 µCi, total radioactivity, MM1S xenograft mice, read-out: uptake in blood"}, "[4]": {"conditions": "brain, 80 µCi, MM1S xenograft mice, read-out: uptake in brain"}, "[5]": {"conditions": "femur, 80 µCi, MM1S xenograft mice, read-out: uptake in femur"}, "[6]": {"conditions": "heart, 80 µCi, total radioactivity, MM1S xenograft mice, read-out: uptake in heart"}, "[7]": {"conditions": "kidney, 80 µCi, MM1S xenograft mice, read-out: uptake in kidney"}, "[8]": {"conditions": "large intestine (with contents), 80 µCi, MM1S xenograft mice, read-out: uptake in large intestine (with contents)"}, "[9]": {"conditions": "liver, 80 µCi, total radioactivity, MM1S xenograft mice, read-out: uptake in liver"}, "[10]": {"conditions": "lung, 80 µCi, total radioactivity, MM1S xenograft mice, read-out: uptake in lung"}, "[11]": {"conditions": "muscle, 80 µCi, MM1S xenograft mice, read-out: uptake in muscle"}},
  "note": "Like-named read-outs stand apart in the source and are kept apart here.",
  "data": [
    {"smiles": "CC[C@H](C)[C@@H]1NC(=O)[C@@H]2CCCN2C(=O)[C@H](Cc2ccccc2)NC(=O)[C@H](CC(=O)O)NC(=O)[C@H](C)NC(=O)[C@@H]2CSCc3cc(cc(c3)CSC[C@H](NC(=O)[C@H](C)NC(=O)CCOCCOCCOCCNC(=O)CN3CCN(CC(=O)O)CCN(CC(=O)O)CC3)C(=O)N[C@@H](C(C)C)C(=O)N3CCC[C@H]3C(=O)N2)CSC[C@@H](C(N)=O)NC(=O)[C@H](Cc2ccc(O)cc2)NC(=O)[C@H](Cc2c[nH]c3ccccc23)NC1=O", "note": "[[^68Ga]Ga‐AJ206, metal not drawn]", "values": [
      {"measurement": "tissue uptake at 5 min", "setting": "[1]", "value": "5.07 ± 0.11", "unit": "%ID/g"},
      {"measurement": "tissue uptake at 0.5 h", "setting": "[1]", "value": "2.08 ± 0.38", "unit": "%ID/g"},
      {"measurement": "tissue uptake at 1 h", "setting": "[1]", "value": "0.59 ± 0.06", "unit": "%ID/g"},
      {"measurement": "tissue uptake at 1.5 h", "setting": "[1]", "value": "0.44 ± 0.1", "unit": "%ID/g"},
      {"measurement": "tissue uptake at 2 h", "setting": "[1]", "value": "0.57 ± 0.14", "unit": "%ID/g"},
      {"measurement": "tissue uptake at 5 min", "setting": "[2]", "value": "9.35 ± 1.87", "unit": "%ID/g"},
      {"measurement": "tissue uptake at 0.5 h", "setting": "[2]", "value": "4.51 ± 0.93", "unit": "%ID/g"},
      {"measurement": "tissue uptake at 1 h", "setting": "[2]", "value": "0.75 ± 0.08", "unit": "%ID/g"},
      {"measurement": "tissue uptake at 1.5 h", "setting": "[2]", "value": "1.23 ± 0.1", "unit": "%ID/g"},
      {"measurement": "tissue uptake at 2 h", "setting": "[2]", "value": "0.9 ± 0.37", "unit": "%ID/g"},
      {"measurement": "tissue uptake at 1 h", "setting": "blood, 2 mg/kg, MM1S xenograft mice with blocking dose (2 mg kg^−1 AJ206), read-out: uptake in blood", "value": "2.17 ± 1.17", "unit": "%ID/g"},
      {"measurement": "tissue uptake at 2 h", "setting": "blood, 80 µCi, MM1S xenograft mice, read-out: uptake in blood", "value": "0.33 ± 0.07", "unit": "%ID/g"},
      {"measurement": "tissue uptake at 5 min", "setting": "[3]", "value": "20.7 ± 1.68", "unit": "%ID/g"},
      {"measurement": "tissue uptake at 0.5 h", "setting": "[3]", "value": "2.95 ± 0.37", "unit": "%ID/g"},
      {"measurement": "tissue uptake at 1 h", "setting": "[3]", "value": "0.75 ± 0.29", "unit": "%ID/g"},
      {"measurement": "tissue uptake at 1.5 h", "setting": "[3]", "value": "0.75 ± 0.24", "unit": "%ID/g"},
      {"measurement": "tissue uptake at 5 min", "setting": "[4]", "value": "0.44 ± 0.07", "unit": "%ID/g"},
      {"measurement": "tissue uptake at 0.5 h", "setting": "[4]", "value": "0.21 ± 0.12", "unit": "%ID/g"},
      {"measurement": "tissue uptake at 1 h", "setting": "[4]", "value": "0.06 ± 0.03", "unit": "%ID/g"},
      {"measurement": "tissue uptake at 1.5 h", "setting": "[4]", "value": "0.03 ± 0.01", "unit": "%ID/g"},
      {"measurement": "tissue uptake at 2 h", "setting": "[4]", "value": "0.02 ± 0.01", "unit": "%ID/g"},
      {"measurement": "tissue uptake at 1 h", "setting": "femur, 2 mg/kg, MM1S xenograft mice with blocking dose (2 mg kg^−1 AJ206), read-out: uptake in femur", "value": "0.25 ± 0.09", "unit": "%ID/g"},
      {"measurement": "tissue uptake at 5 min", "setting": "[5]", "value": "3.37 ± 0.31", "unit": "%ID/g"},
      {"measurement": "tissue uptake at 0.5 h", "setting": "[5]", "value": "0.86 ± 0.06", "unit": "%ID/g"},
      {"measurement": "tissue uptake at 1 h", "setting": "[5]", "value": "0.33 ± 0.12", "unit": "%ID/g"},
      {"measurement": "tissue uptake at 1.5 h", "setting": "[5]", "value": "0.28 ± 0.05", "unit": "%ID/g"},
      {"measurement": "tissue uptake at 2 h", "setting": "[5]", "value": "0.09 ± 0.02", "unit": "%ID/g"},
      {"measurement": "tissue uptake at 1 h", "setting": "heart, 2 mg/kg, MM1S xenograft mice with blocking dose (2 mg kg^−1 AJ206), read-out: uptake in heart", "value": "0.33 ± 0.03", "unit": "%ID/g"},
      {"measurement": "tissue uptake at 5 min", "setting": "[6]", "value": "6.38 ± 0.42", "unit": "%ID/g"},
      {"measurement": "tissue uptake at 0.5 h", "setting": "[6]", "value": "1 ± 0.15", "unit": "%ID/g"},
      {"measurement": "tissue uptake at 1 h", "setting": "[6]", "value": "0.29 ± 0.03", "unit": "%ID/g"},
      {"measurement": "tissue uptake at 1.5 h", "setting": "[6]", "value": "0.35 ± 0.08", "unit": "%ID/g"},
      {"measurement": "tissue uptake at 2 h", "setting": "[6]", "value": "0.16 ± 0.01", "unit": "%ID/g"},
      {"measurement": "tissue uptake at 1 h", "setting": "kidney, 2 mg/kg, MM1S xenograft mice with blocking dose (2 mg kg^−1 AJ206), read-out: uptake in kidney", "value": "15.9 ± 1.12", "unit": "%ID/g"},
      {"measurement": "tissue uptake at 5 min", "setting": "[7]", "value": "31.5 ± 4.15", "unit": "%ID/g"},
      {"measurement": "tissue uptake at 0.5 h", "setting": "[7]", "value": "21.6 ± 2.02", "unit": "%ID/g"},
      {"measurement": "tissue uptake at 1 h", "setting": "[7]", "value": "14.1 ± 0.57", "unit": "%ID/g"},
      {"measurement": "tissue uptake at 1.5 h", "setting": "[7]", "value": "13.2 ± 1.59", "unit": "%ID/g"},
      {"measurement": "tissue uptake at 2 h", "setting": "[7]", "value": "9.39 ± 1.5", "unit": "%ID/g"},
      {"measurement": "tissue uptake at 5 min", "setting": "[8]", "value": "3.11 ± 0.38", "unit": "%ID/g"},
      {"measurement": "tissue uptake at 0.5 h", "setting": "[8]", "value": "0.75 ± 0.04", "unit": "%ID/g"},
      {"measurement": "tissue uptake at 1 h", "setting": "[8]", "value": "0.29 ± 0.03", "unit": "%ID/g"},
      {"measurement": "tissue uptake at 1.5 h", "setting": "[8]", "value": "0.27 ± 0.05", "unit": "%ID/g"},
      {"measurement": "tissue uptake at 2 h", "setting": "[8]", "value": "0.27 ± 0.19", "unit": "%ID/g"},
      {"measurement": "tissue uptake at 1 h", "setting": "liver, 2 mg/kg, MM1S xenograft mice with blocking dose (2 mg kg^−1 AJ206), read-out: uptake in liver", "value": "1.45 ± 0.26", "unit": "%ID/g"},
      {"measurement": "tissue uptake at 5 min", "setting": "[9]", "value": "30.3 ± 3.51", "unit": "%ID/g"},
      {"measurement": "tissue uptake at 0.5 h", "setting": "[9]", "value": "3.64 ± 0.31", "unit": "%ID/g"},
      {"measurement": "tissue uptake at 1 h", "setting": "[9]", "value": "1.38 ± 0.04", "unit": "%ID/g"},
      {"measurement": "tissue uptake at 1.5 h", "setting": "[9]", "value": "1.16 ± 0.08", "unit": "%ID/g"},
      {"measurement": "tissue uptake at 2 h", "setting": "[9]", "value": "0.73 ± 0.1", "unit": "%ID/g"},
      {"measurement": "tissue uptake at 1 h", "setting": "lung, 2 mg/kg, MM1S xenograft mice with blocking dose (2 mg kg^−1 AJ206), read-out: uptake in lung", "value": "0.94 ± 0.09", "unit": "%ID/g"},
      {"measurement": "tissue uptake at 5 min", "setting": "[10]", "value": "10.2 ± 4.52", "unit": "%ID/g"},
      {"measurement": "tissue uptake at 0.5 h", "setting": "[10]", "value": "3.43 ± 0.5", "unit": "%ID/g"},
      {"measurement": "tissue uptake at 1 h", "setting": "[10]", "value": "0.67 ± 0.07", "unit": "%ID/g"},
      {"measurement": "tissue uptake at 1.5 h", "setting": "[10]", "value": "0.95 ± 0.18", "unit": "%ID/g"},
      {"measurement": "tissue uptake at 2 h", "setting": "[10]", "value": "0.4 ± 0.04", "unit": "%ID/g"},
      {"measurement": "tissue uptake at 1 h", "setting": "muscle, 2 mg/kg, MM1S xenograft mice with blocking dose (2 mg kg^−1 AJ206), read-out: uptake in muscle", "value": "0.21 ± 0.07", "unit": "%ID/g"},
      {"measurement": "tissue uptake at 5 min", "setting": "[11]", "value": "1.96 ± 0.28", "unit": "%ID/g"},
      {"measurement": "tissue uptake at 0.5 h", "setting": "[11]", "value": "0.55 ± 0.09", "unit": "%ID/g"}
    ]}
  ]
}
